Measured values taken from US20240352145A1, “EFFICACY OF ANTI-TROP-2-SN-38 ANTIBODY DRUG CONJUGATES FOR THERAPY OF TUMORS RELAPSED/REFRACTORY TO CHECKPOINT INHIBITORS” (Immunomedics, Inc., priority 2016, published 2024).

Experiments:
[1] = animals given irinotecan; Goldenberg et al., 2014; cited from earlier work
[2] = tested on: Capan-1 tumors; experiment: Capan-1 xenograft therapy; type: in vivo, mouse; conditions: for average tumor size: day 35, 0.4 mg SN-38/kg; for tumor volume (TV): day 49, 0.4 mg/kg SN-38; for tumor-free mice at end of study: day 140
Description: (§1) NCr female athymic nude (nu/nu) mice, 4 to 8 weeks old, and male Swiss-Webster mice, 10 weeks old, were purchased from Taconic Farms. Tolerability studies were performed in Cynomolgus monkeys (Macaca fascicularis; 2.5-4 kg male and female) by SNBL USA, Ltd. Animals were implanted subcutaneously with different human cancer cell lines. Tumor volume (TV) was determined by measurements in 2 dimensions using calipers, with volumes defined as: L×w^2/2, where L is the longest dimension of the tumor and w is the shortest. […] This dosing frequency reflected a consideration of the conjugate's serum half-life […], to allow a more continuous exposure to the ADC.
(§2) Statistics—Growth curves are shown as percent change in initial TV over time. Statistical analysis of tumor growth was based on area under the curve (AUC). Profiles of individual tumor growth were obtained through linear-curve modeling. An f-test was employed to determine equality of variance between groups before statistical analysis of growth curves. A 2-tailed t-test was used to assess statistical significance between the various treatment groups and controls, except for the saline control, where a 1-tailed t-test was used (significance at P≤0.05). Statistical comparisons of AUC were performed only up to the time that the first animal within a group was euthanized due to progression.

[3] = weekly x 4 doses; Camptosar package insert; cited from earlier work
[4] = tested on: COLO 205 tumors; experiment: COLO 205 xenograft therapy; type: in vivo; conditions: for tumor volume (TV): 0.4 mg/kg, q4dx8, 28-day treatment period
[5] = Irinotecan MTD and conversion in mice; type: in vivo, mouse
[6] = tested on: MDA-MB-468 TNBC tumors; experiment: MDA-MB-468 TNBC xenograft; type: in vivo, mouse; conditions: one animal each, tumors progressed to ~0.7 cm^3 on irinotecan
[7] = tested on: human gastric carcinoma xenograft, NCI-N87; experiment: NCI-N87 gastric carcinoma xenograft, Example 17; type: in vivo, mouse
Source text: (§3) In Vivo Therapeutic Studies—NCr female athymic nude (nu/nu) mice, 4-8 weeks old, were purchased from Taconic Farms (Germantown, NY). NCI-N87 gastric tumor xenografts were established by harvesting cells from tissue culture and making a final cell suspension 1:1 in matrigel (BD Bioscience; San Jose, CA), with each mouse receiving a total of 1×10^7 cells s.c. in the right flank. For BxPC-3. xenografts of 1 g were harvested, and a tumor suspension made in HBSS to a concentration of 40% tumor w/v. This suspension was mixed 1:1 with matrigel for a final tumor suspension of 20% w/v. […] For IHC, tumors were allowed to grow to approximately 0.5 cm^3 before the mice were euthanized and the tumors removed, formalin-fixed and paraffin-embedded. For therapy studies, mice were randomized into treatment groups and therapy begun when tumor volumes were approximately 0.25 cm^3.
(§4) Mice were euthanized and deemed to have succumbed to disease once tumors grew to greater than 1.0 cm^3 in size. […] Time to progression (TTP) was determined as time post-therapy initiation when the tumor grew more than 20% in size from its nadir.
Survival studies were analyzed using Kaplan-Meier plots (log-rank analysis), using the Prism GraphPad Software (v4.03) software package (Advanced Graphics Software, Inc., Encinitas, CA).

[8] = tested on: BxPC-3 human pancreatic tumors; experiment: BxPC-3 xenograft therapy; type: in vivo, mouse; conditions: day 21; equivalent amounts of ADC
Description: as §1, §2

[9] = tested on: BxPC-3; experiment: dsDNA breaks, γH2AX induction in BxPC-3; type: cell-based, human; conditions: BxPC-3, 20 μg/ml for 30 min
Description: Assessment of Double-Stranded DNA Breaks In Vitro—For drug activity testing, BxPC-3 cells were seeded in 6-well plates at 5×10^5 cells/well and held at 37° C. overnight. […] The following morning, cells were trypsinized briefly, spun down, stained with Fixable Viability Stain 450 (BD Biosciences, San Jose, CA), washed with 1% BSA-PBS, and then fixed in 4% formalin for 15 min, washed again and permeabilized in 0.15% Triton-X100 in PBS for another 15 min. After washing twice with 1% BSA-PBS, cells were incubated with mouse anti-γH2AX-AF488 (EMD Millipore Corporation, Temecula, CA) for 45 min at 4° C. The signal intensity of γH2AX was measured by flow cytometry using a BD FACSCanto (BD Biosciences, San Jose, CA).

[10] = tested on: NCI-N87 human gastric tumor xenografts; experiment: Dose schedules and chronic dosing, NCI-N87 xenograft; type: in vivo, mouse; conditions: four cycles
Source text: as §3, §4
A similar dose schedule experiment was performed in mice bearing NCI-N87 human gastric tumor xenografts (not shown). […] Likewise, in terms of overall survival, while all three dose schedules provided a significant survival benefit when compared to untreated control (P<0.0001), there were no differences between any of these three different schedules.
In all, four treatment cycles were administered to the animals.

[11] = tested on: Calu-3; experiment: Calu-3 xenograft therapy; type: in vivo, mouse; conditions: for tumor volume (TV): 0.04 mg SN-38/kg every 4 days x 4; for outcome: 0.4 mg/kg SN-38
[12] = biological target: T1, Trop-2 (Homo sapiens, UniProt P09758); experiment: In vitro cell binding, multiple cell lines; set-up: endogenous in cells; host or cells: human cancer cell lines (ATCC)
T1 sequence (P09758 27-323): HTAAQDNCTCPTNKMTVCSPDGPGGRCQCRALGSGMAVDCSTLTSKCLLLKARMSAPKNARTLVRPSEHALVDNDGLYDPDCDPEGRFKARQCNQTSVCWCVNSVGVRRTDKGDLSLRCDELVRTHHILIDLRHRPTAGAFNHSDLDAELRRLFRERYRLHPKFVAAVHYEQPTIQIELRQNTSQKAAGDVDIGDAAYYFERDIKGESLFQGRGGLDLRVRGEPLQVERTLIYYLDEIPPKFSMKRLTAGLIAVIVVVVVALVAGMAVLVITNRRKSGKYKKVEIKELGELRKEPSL
Description: In Vitro Cell Binding—LumiGLO Chemiluminescent Substrate System (KPL, Gaithersberg, MD) was used to detect antibody binding to cells. Briefly, cells were plated into a 96 black-well, flat-clear-bottom plate overnight. Antibodies were serially diluted 1:2 and added in triplicate, yielding a concentration range from 0.03 to 66.7 nM. After incubating for 1 h at 4° C., the media was removed and the cells washed with fresh cold media followed by the addition of a 1:20,000 dilution of goat-antihuman horseradish peroxidase-conjugated secondary antibody (Jackson Immunoresearch, West Grove, PA) for 1 h at 4° C. The plates were again washed before the addition of the LumiGLO reagent. Plates were read for luminescence using an Envision plate reader (Perkin Elmer, Boston MA). Data were analyzed by non-linear regression to determine the equilibrium dissociation constant (KD). Statistical comparisons of KD-values were made with Prism GraphPad Software (v4.03) (Advanced Graphics Software, Inc.; Encinitas, CA) using an F-Test on the best-fit curves for the data. Significance was set at P<0.05.

[13] = mouse, in vivo
Source text: Pharmacokinetics—Naive female NCr nude (nu/nu) mice, 8-10 weeks old, were purchased from Taconic Farms (Germantown, NY). […] ELISA was utilized to determine serum concentrations of total hRS7 IgG by competing for the binding to an anti-hRS7 IgG idiotype antibody with a horseradish peroxidase conjugate of hRS7. […] Pharmacokinetic (PK) parameters were computed by noncompartmental analysis using Phoenix WinNonlin software (version 6.3; Pharsight Corp., Mountainview, CA).

[14] = tested on: BxPC-3; experiment: ADCC activity of hRS7-ADC conjugates; type: cell-based, human; conditions: 33.3 nM; PBMC effector to target ratio 100:1
Source text: PBMCs were purified from blood purchased from the Blood Center of New Jersey. A Trop-2-positive human pancreatic adenocarcinoma cell line (BxPC-3) was used as the target cell line with an effector to target ratio of 100:1.

[15] = in vivo; cited from earlier work
[16] = tested on: Capan-1; experiment: Combination 90Y-hPAM4 RAIT + ADC, Capan-1 xenograft; type: in vivo, mouse
Source text: Objective responses occurred in most animals, but they were more robust in both of the combination groups as compared to each agent given alone. […] These studies provide the first evidence that combined radioimmunotherapy and ADC enhances efficacy at safe doses.

[17] = tested on: pancreatic cancer; experiment: PAM4 clinical trial, 90Y-hPAM4 with gemcitabine; type: in vivo, human; conditions: 22 CT-assessable patients
Description: In the ongoing PAM4 clinical trials, a four week clinical treatment cycle is performed. In week 1, subjects are administered a dose of ^111In-hPAM4, followed at least 2 days later by gemcitabine dose. In weeks 2, 3 and 4, subjects are administered a ^90Y-hPAM4 dose, followed at least 2 days later by gemcitabine (200 mg/m^2). Escalation started at 3×6.5 mCi/m^2. The maximum tolerated dose in front-line pancreatic cancer patients was 3×15 mCi/m^2 (hematologic toxicity is dose-limiting).

[18] = 0.2 mg/kg SN-38 twice weekly x 4 weeks

## CCc1c2c(nc3ccc(OC(=O)N4CCC(N5CCCCC5)CC4)cc13)-c1cc3c(c(=O)n1C2)COC(=O)[C@]3(O)CC [irinotecan, 7-ethyl-10-[4-(1-piperidino)-1-piperidino]carbonyloxycamptothecin]
[1]
  share of total serum SN-38 that is glucuronidated: > 50%
[2]
  average tumor size: 1.78±0.62 cm^3
[3]
  grades 3 and 4 late diarrhea: 31%
[4]; 24 mg SN-38/kg, q2dx5
  efficacy of irinotecan at MTD: as effective as hRS7-CL2-SN-38
[5]; IV, single injection
  MTD: 40 mg/kg
[5]; q2dx5
  MTD: 24 mg SN-38/kg
[6]
  decrease in tumor size after re-treatment: 23%

## hA20-CL2-SN-38 [reference compound]
[2]
  tumor volume (TV): 0.80±0.68 cm^3
[4]
  tumor volume (TV): 1.19±0.59 cm^3

## hA20-CL2A-SN-38 [reference compound]
[7]; 14 days for saline control
  median survival time (MST): 24 days
[7]; mouse, in vivo
  mean time to progression (TTP): 4.1 ± 2.0 days
[2]; [18]
  tumor-free mice at end of study: 20%
[8]
  tumor volume (TV): 1.05±0.73 cm^3
[9]; untreated 18.8 ± 6.3, listed as hA20-SN-38
  Percent Positive, γH2AX: 12.7 ± 2.4%
[9]; untreated 2516 ± 191
  Mean Fluorescence Intensity, γH2AX: 2246 ± 58
[10]; 0.5 mg once a week for two weeks, one week off
  TTP: 4.7 ± 2.2 days
[10]; chronic dosing
  median survival: 21 days

## hLL2-CL2-SN-38 [reference compound]
[11]
  tumor volume (TV): 0.80±0.91 cm^3
  outcome: tumors regrew

## hRS7-CL2-SN-38
[2]; [18]
  tumor growth vs untreated and hA20-CL2A-SN-38: significantly inhibited tumor growth
  tumor-free mice at end of study: 40%
[2]
  average tumor size: 0.04±0.05 cm^3
  tumor volume (TV): 0.17±0.18 cm^3
[4]; 0.4 mg/kg SN-38 twice weekly x 4 weeks
  tumor growth vs untreated and hA20-CL2A-SN-38: significantly inhibited tumor growth
[4]
  tumor volume (TV): 0.16±0.09 cm^3
[11]
  tumor volume (TV): 0.14±0.22 cm^3
  outcome: remained tumor-free until the end of the study on day 147

## hRS7-NEM [reference compound]
[12]
  KD: sub-nanomolar range
[13]
  half-life, Cmax, AUC, clearance, MRT vs parental hRS7: no significant differences
[14]
  specific lysis (ADCC): no difference between hRS7-NEM and sacituzumab govitecan

## hRS7-Pro-2-PDox
[14]
  specific lysis (ADCC): not significantly different

## veltuzumab
[15]
  immunogenicity in subjects: less immunogenic in subjects than rituximab

B1: ^90Y-hPAM4 (conjugate, chains of the INN, looked up)
VH: QVQLQQSGAEVKKPGASVKVSCEASGYTFPSYVLHWVKQAPGQGLEWIGYINPYNDGTQYNEKFKGKATLTRDTSINTAYMELSRLRSDDTAVYYCARGFGGSYGFAYWGQGTLVTVSS
VL: DIQLTQSPSSLSASVGDRVTMTCSASSSVSSSYLYWYQQKPGKAPKLWIYSTSNLASGVPARFSGSGSGTDFTLTISSLQPEDSASYFCHQWNRYPYTFGGGTRLEIK
modifications: 90Y radiolabel
[16]; 75 μCi 90Y-hPAM4 level, ADC alone, or their combination, n=10
  tumor-free mice after 20 weeks: 1 of 10
[16]; 130 μCi 90Y-hPAM4 level, n=10
  tumor-free animals: 5 of 10
[17]
  disease control rate (CR+PR+SD): 68%
  partial responses: 23%
  stabilization as best response: 45%

B2: hPAM4 (antibody, chains of the INN, looked up, V domains shown)
VH: QVQLQQSGAEVKKPGASVKVSCEASGYTFPSYVLHWVKQAPGQGLEWIGYINPYNDGTQYNEKFKGKATLTRDTSINTAYMELSRLRSDDTAVYYCARGFGGSYGFAYWGQGTLVTVSS
VL: DIQLTQSPSSLSASVGDRVTMTCSASSSVSSSYLYWYQQKPGKAPKLWIYSTSNLASGVPARFSGSGSGTDFTLTISSLQPEDSASYFCHQWNRYPYTFGGGTRLEIK
[16]; given alone
  anti-tumor activity of unconjugated antibodies: Neither unconjugated hPAM4 nor hRS7 antibodies had anti-tumor activity
